Columns and labels:
[1] = molecular target: TNF-α converting enzyme (TACE) (Homo sapiens, UniProt P78536); test: TACE inhibition (fluorescent peptidyl substrate); format: biochemical; details: read-out: IC50 (nM) or % Inhibition (µM) TACE
Method: Using 96-well black microtiter plates, each well receives a solution composed of 10 µL TACE (final concentration 1µg/mL), 70µL Tris buffer, pH 7.4 containing 10% glycerol (final concentration 10 mM), and 10 µL of test compound solution in DMSO (final concentration 1µM, DMSO concentration <1%) and incubated for 10 minutes at room temperature. The reaction is initiated by addition of a fluorescent peptidyl substrate (final concentration 100 µM) to each well and then shaking on a shaker for 5 sec.
The reaction is read (excitation 340 nm, emission 420 nm) for 10 min. and the increase in fluorescence over time is plotted as a linear line. The slope of the line is calculated and represents the reaction rate.
(§1) The linearity of the reaction rate is confirmed (r^2 >0.85). The mean (x±sem) of the control rate is calculated and compared for statistical significance (p<0.05) with drug-treated rates using Dunnett's multiple comparison test.

[2] = test system: THP-1 cells; test: THP-1 soluble protein assay (LPS-stimulated human monocytic THP-1 cells); format: cell-based; details: Homo sapiens, LPS-stimulated THP-1 cells, read-out: % Inhib. @ 3µM THP
Description: Mitogenic stimulation of THP-1 cells cause differentiation into macrophage like cells with concomitant secretion of tumor necrosis factor (TNF-a) and TNF receptor (TNF-R p75/80 and TNF-R p55/60) and Interleukin-8 (IL-8), among other proteins. In addition, non-stimulated THP-1 cells shed both the p75/80 and the p55/60 receptors over time. The release of membrane bound TNF-α and possibly TNF-R p75/80 and TNF-R p55/60, but not IL-8, is mediated by an enzyme called TNF-a converting enzyme or TACE.
THP-1 cells (from ATCC) are a human monocytic cell line which were obtained from the peripheral blood of a person with acute monocytic leukemia. They can be grown in culture and differentiated into macrophage like cells by stimulation with mitogens.
Each vial of cells are cultured for about two weeks prior to being used for an assay and then are used for only 4 to 6 weeks to screen compounds.
Cell exposure to DMSO was limited to 0.1 % final concentration. […] Compounds can be evaluated for their effect on basal (non-stimulated) shedding of the receptors by replacing the LPS with […] of THP-1 media. Plates are placed into an incubator set at 5% CO2 and at 37°C. After 4 hours of incubation, […] of tissue culture supernatant (TCS) is removed for use in an TNF-a ELISA. Following 24 hours of incubation, […] of TCS is removed and used for analysis in TNF-R p75/80, TNF-R p55/60 and IL-8 ELISAs.
In addition, at the 24 hours timepoint, and the cells for each treatment group are collected by resuspension in 500 µl/well of THP-1 media and transferred into a FACS tube. […] The samples are run on a Becton Dickinson FaxCaliber FLOW cytometry machine and the amount of dye taken up by each cell is measured in the high red wavelength (FL3). Only cells with compromised membranes (dead or dying) can take up PI. The percent of live cells is calculated by the number of cells not stained with PI, divided by the total number of cells in the sample. The viability values calculated for the drug treated groups were compared to the viability value calculated for the vehicle treated mitogen stimulated group ("vehicle positive control") to determine the "percent change from control". This "percent change from control" value is an indicator of drug toxicity.
The quantity of soluble TNF-a, TNF-R p75/80 and TNF-R p55/60 and IL-8 in the TCS of the THP-1 cell cultures are obtained with commercially available ELISAs from R&D Systems, by extrapolation from a standard curve generated with kit standards. The number of cells that either take up or exclude PI are measured by the FLOW cytometry machine and visualized by histograms using commercially available Cytologic software for each treatment group including all controls.
Biological variability in the magnitude of the response of THP-1 cell cultures requires that experiments be compared on the basis of percent change from "vehicle positive control" for each drug concentration. Percent change in each soluble protein evaluated from the "vehicle positive control" was calculated for each compound concentration with the following formula: % Change =(pg/ml(compound) - pg/ml (veh pos control))/(pg/ml (veh pos control) - pg/ml(veh neg control))x 100 [formula]
For the soluble protein (TNF-a, p75/80, p55/60, IL-8) studies under stimulated conditions, the mean pg/ml of duplicate wells were determined and the results expressed as percent change from "vehicle positive control". For the soluble protein (p75/80 and p55/60 receptors) studies under non-stimulated conditions, the mean pg/ml of duplicate wells were determined and the results expressed as percent change from "vehicle positive control" utilizing the following formula: % Change =(pg/ml (compound neg control) - pg/ml (veh neg control)/(pg/ml (veh neg control))X 100 [formula]
IC50 values for each compound are calculated by non-linear regression analysis using customized software utilizing the JUMP statistical package.

[3] = molecular target: MMP-13 (Homo sapiens, UniProt P45452); test: MMP-13 inhibition (thiopeptide or fluorescent peptide substrate); format: biochemical
Method: (§2) The enzyme activity is measured by the rate of the color increase. The thiopeptide substrate is made up fresh as a 20 mM stock in 100% DMSO and the DTNB is dissolved in 100% DMSO as a 100 mM stock and stored in the dark at room temperature. Both the substrate and DTNB are diluted together to 1 mM with substrate buffer (50 mM HEPES pH 7.5, 5 mM CaCl2) before use. The stock of enzyme is diluted with buffer (50 mM HEPES, pH 7.5, 5 mM CaCl2, 0.02% Brij) to the desired final concentration.
(§3) Alternatively, a fluorescent peptide substrate is used. In this test procedure, the peptide substrate contains a fluorescent group and a quenching group. Upon cleavage of the substrate by an MMP, the fluorescence that is generated is quantitated on the fluorescence plate reader. The assay is run in HCBC assay buffer (50mM HEPES, pH 7.0, 5 mM Ca^+2, 0.02% Brij, 0.5% Cysteine), with human recombinant MMP-1, MMP-9, or MMP-13. The substrate is dissolved in methanol and stored frozen in 1 mM aliquots. For the assay, substrate and enzymes are diluted in HCBC buffer to the desired concentrations. Compounds are added to the 96 well plate containing enzyme and the reaction is started by the addition of substrate.
as §1, with “For either the thiopeptide or fluorescent peptide test procedures, the slope of the line is calculated and represents the reaction rate. The linearity” for “The linearity”

[4] = molecular target: T1, MMP-1 (Homo sapiens, UniProt P03956); test: MMP-1 inhibition (thiopeptide or fluorescent peptide substrate); format: biochemical; details: plain number = IC50
T1 sequence (P03956 100-469): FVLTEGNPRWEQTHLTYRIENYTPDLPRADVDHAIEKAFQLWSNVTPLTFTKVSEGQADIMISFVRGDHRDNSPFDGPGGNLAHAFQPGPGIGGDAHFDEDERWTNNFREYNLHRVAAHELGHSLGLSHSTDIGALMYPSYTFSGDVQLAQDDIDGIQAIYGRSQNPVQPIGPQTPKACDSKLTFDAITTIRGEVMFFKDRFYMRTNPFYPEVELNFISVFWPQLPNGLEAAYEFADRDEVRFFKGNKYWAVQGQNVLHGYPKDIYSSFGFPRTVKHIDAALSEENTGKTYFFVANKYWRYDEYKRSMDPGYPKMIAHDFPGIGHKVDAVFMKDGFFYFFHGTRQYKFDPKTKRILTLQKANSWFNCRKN
Method: as §2, §3
as §1, with “For either the thiopeptide or fluorescent peptide test procedures, the slope of the line is calculated and represents the reaction rate. The linearity” for “The linearity”

[5] = molecular target: MMP-9 (Homo sapiens, UniProt P14780); test: MMP-9 inhibition (thiopeptide or fluorescent peptide substrate); format: biochemical
Method: as §2, §3
as §1, with “For either the thiopeptide or fluorescent peptide test procedures, the slope of the line is calculated and represents the reaction rate. The linearity” for “The linearity”

Sequence of MMP-9 (P14780 94-707): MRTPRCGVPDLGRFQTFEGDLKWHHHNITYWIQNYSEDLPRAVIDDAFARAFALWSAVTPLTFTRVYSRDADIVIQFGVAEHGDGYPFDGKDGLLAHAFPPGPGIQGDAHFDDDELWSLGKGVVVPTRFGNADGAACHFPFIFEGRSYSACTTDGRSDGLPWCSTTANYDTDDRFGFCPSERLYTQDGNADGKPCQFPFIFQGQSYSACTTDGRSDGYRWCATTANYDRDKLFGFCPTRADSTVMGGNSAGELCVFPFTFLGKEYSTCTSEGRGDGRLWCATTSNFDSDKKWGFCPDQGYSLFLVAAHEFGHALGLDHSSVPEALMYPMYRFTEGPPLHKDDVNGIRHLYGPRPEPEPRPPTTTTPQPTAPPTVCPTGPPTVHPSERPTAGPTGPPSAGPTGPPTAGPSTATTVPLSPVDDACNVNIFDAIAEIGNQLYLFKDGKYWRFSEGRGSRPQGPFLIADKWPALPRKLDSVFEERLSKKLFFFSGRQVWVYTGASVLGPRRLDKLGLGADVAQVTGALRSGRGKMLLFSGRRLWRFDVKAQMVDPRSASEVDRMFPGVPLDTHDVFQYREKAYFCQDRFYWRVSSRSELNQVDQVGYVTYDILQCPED
Sequence of TNF-α converting enzyme (TACE) (P78536 215-824, species assumed): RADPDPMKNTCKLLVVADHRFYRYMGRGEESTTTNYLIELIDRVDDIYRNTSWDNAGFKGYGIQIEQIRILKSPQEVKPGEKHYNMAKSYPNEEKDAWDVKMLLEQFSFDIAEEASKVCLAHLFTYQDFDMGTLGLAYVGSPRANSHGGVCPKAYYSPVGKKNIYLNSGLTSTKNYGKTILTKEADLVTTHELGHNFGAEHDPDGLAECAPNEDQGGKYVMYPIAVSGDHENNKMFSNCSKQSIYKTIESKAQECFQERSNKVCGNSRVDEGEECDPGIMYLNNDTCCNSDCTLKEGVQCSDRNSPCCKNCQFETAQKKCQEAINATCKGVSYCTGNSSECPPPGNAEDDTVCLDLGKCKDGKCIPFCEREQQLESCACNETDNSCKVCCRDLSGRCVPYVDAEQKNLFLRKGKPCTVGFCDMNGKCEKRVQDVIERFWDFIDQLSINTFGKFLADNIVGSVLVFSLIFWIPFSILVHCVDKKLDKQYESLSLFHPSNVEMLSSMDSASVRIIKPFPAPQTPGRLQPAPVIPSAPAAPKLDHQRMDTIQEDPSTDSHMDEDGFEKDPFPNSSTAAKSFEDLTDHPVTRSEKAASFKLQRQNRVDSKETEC

IC50 [1]: 34 nM
IC50 [3]: 189 nM
IC50 [4]: 113 nM
IC50 [5]: 694 nM
Structure (SMILES): Cc1cc(Br)cc(C(=O)NO)c1N(C)S(=O)(=O)c1ccc(OCC#Cc2cccc(O)c2)cc1 [Example 84, 5-Bromo-N-hydroxy-2-({4-[3-(3-hydroxy-phenyl)-prop-2-ynyloxy]-benzenesulfonyl}-methyl-amino)-3-methyl-benzamide]
inhibition at 3 µM [2]: 0%

— patent EP1144369B1 (Wyeth Holdings Corporation, priority 1999, dated 2000)
